According to patent US20250041412A1, “TRANSMEMBRANE NEOANTIGENIC PEPTIDES” (INSTITUT CURIE, priority 2021, published 2025):
“Also recorded” adds a separate entry of the source. Values belong to the molecule of their own block, whether it stands above or below them.

Experiments:
CD8+ T cells [1] = test: Priming of naive CTLs by peptide-loaded moDCs, two-colour tetramer staining (immunogenicity); assay type: cell-based, human; settings: for specific CD8+ T expansions (immunogenicity): total of 6 HLA-A2+ healthy donors, FIG. 12A; for expansion of specific CD8+ T cells (tetramer staining): one HLA-A2+ healthy donor, at least one magnitude order more tetramer positive cells than control without peptides
Procedure: Priming of naïve CTLs. PBMCs were obtained by Ficoll gradient separation from HLA-A2+healthy blood donors. CD14+, CD4+ and CD8+ cells were purified by positive selection using magnetic beads (Miltenyi Biotec). While CD4+ and CD8+ T cells were cryopreserved until the experiment day, CD14+ fraction was cultured in the presence of IL-4 (50 ng/mL) and GM-CSF (10 ng/mL) at 10^6 cells/mL during 5 days to obtain moDCs. After this period of time, the moDCs were maturated with LPS and incubated with synthetic ER-derived peptides at a final concentration of 1 μg/mL for 2 hours. Finally, peptide-loaded moDCs were co-cultured with autologous CD4+ and CD8+ T cells in culture medium supplemented with IL-2 (10 U/ml) and IL-7 (100 ng/ml). The ER-derived peptide stimulation of specific CD8+CTL populations was assessed by MHC-I tetramer staining by flow cytometry using a combination of two-color tetramer for each peptide.
(§1) Tetramer Staining. Cells were resuspended in PBS, stained with Live/Dead Aqua-405 nm (ThermoFisher) during 20 minutes at 4° C. and washed once. After that, cells were resuspended in PBS-1% BSA containing the mix of SA-coupled tetramers and incubated in the dark at room temperature during 20 minutes. Without further washing, surface antibodies were added in PBS-1% BSA and cells were incubated 20 minutes in the dark at 4° C. Surface antibodies were a combination of anti-CD3-BV650+anti-CD8-PECy7 in combination with anti-CCR7-AF700+anti-CD45RA-BUV395 when required. Finally, cells were washed twice and resuspended in FACS buffer for flow cytometry analysis.
Priming assays were thus performed to test the ability of identified peptides to expand specific cytotoxic T cells. PBMCs from HLA-A2+healthy donors were used to generate monocyte derived-DCs (moDCs). After loading the moDCs with a mix of synthetic peptides, autologous co-culture was performed with CD4+ and CD8+ T cells. Finally, the expansion of specific CD8+ T cells was analysed by flow cytometry using two-colours tetramer staining. As a control of specific expansion, the co-culture was performed in the absence of peptides.
The same experiment was performed in order to evaluate the response in additional 5 donors. […] As a positive of expansions, mutated Melan-A peptide ([…]) were used.

CD8+ T cells [2] = test: Tetramer staining of CD8+ T cells from LUAD patient samples (TILs, tumor, juxta tumor, lymph nodes, blood); assay type: cell-based, human; settings: TILs from LUAD patients expanded with peptide mix + IL-2 or IL-2 only
Procedure: as §1
Tissues and Blood samples. […]
Tumor infiltrating lymphocytes (TILs) cultures. […] Cells were feed/split as necessary during 15-20 days and cryopreserve or analyzed for tetramer staining.
In a first set of experiments tumor infiltrating lymphocytes (TILs) expanded with a mix of TE-derived peptides and Il-2, or only with Il-2, were analyzed by tetramer staining. […]
Using this strategy, CD8+ T cells present in Tumor, juxta-tumor, invaded lymph-nodes and blood derived from LUAD patient samples were thus analyzed. The cell phenotype was determined based on the expression of surface markers CCR7 and CD45RA for Naïve (CCR7+CD45+), Central Memory (CM, CCR7+CD45RA−) Effector Memory (EM, CCR7−CD45−) and Terminal Effectors (TE, CCR7−CD45+) T cells. […]

[3] = molecular target: T1, HLA-A2 molecule (HLA-A*02:01), recombinant monomer (human); test: HLA-A2 monomer stabilisation and tetramer formation with synthetic peptide, flow cytometry with PE anti-b2m; positive control CMV peptide
T1 construct: Peptide-free monomer that is incubated with a synthetic peptide for 48 h at 18 C; also called HLA-A2 allele; HLA-A2 monomers

Molecule: SLMQSGSPV
specific CD8+ T expansions (immunogenicity) (CD8+ T cells [1]): specific CD8+ T expansions

Molecule: VLLTNTIWL
specific CD8+ T expansions (immunogenicity) (CD8+ T cells [1]): specific CD8+ T expansions

Molecule: LLDRFGYHV
specific CD8+ T expansions (immunogenicity) (CD8+ T cells [1]): specific CD8+ T expansions

Molecule: RQAPGFHHA
specific CD8+ T expansions (immunogenicity) (CD8+ T cells [1]): specific CD8+ T expansions

Molecule: MLMKTVWQA
specific CD8+ T expansions (immunogenicity) (CD8+ T cells [1]): specific CD8+ T expansions

Molecule: GLLNISHTA
specific CD8+ T expansions (immunogenicity) (CD8+ T cells [1]): specific CD8+ T expansions

Molecule: FLIVAEILI
expansion of specific CD8+ T cells (tetramer staining) (CD8+ T cells [1]): expand specific CD8+ T cells

Molecule: GLPSHVELA
specific CD8+ T expansions (immunogenicity) (CD8+ T cells [1]): specific CD8+ T expansions; also recorded: immunogenic | CD8+ T cells / TILs recognizing the peptide (tetramer positive) (CD8+ T cells [2]): found TILs recognizing peptide

Molecule: VLMWTMAHL
specific CD8+ T expansions (immunogenicity) (CD8+ T cells [1]): specific CD8+ T expansions

Molecule: LLHLESFLV
specific CD8+ T expansions (immunogenicity) (CD8+ T cells [1]): specific CD8+ T expansions

Molecule: YLWTTFFPL
expansion of specific CD8+ T cells (tetramer staining) (CD8+ T cells [1]): expand specific CD8+ T cells | specific CD8+ T expansions (immunogenicity) (CD8+ T cells [1]): specific CD8+ T expansions

Molecule: ILHSLVTGV
specific CD8+ T expansions (immunogenicity) (CD8+ T cells [1]): specific CD8+ T expansions

Molecule: LLGETKVYV
expansion of specific CD8+ T cells (tetramer staining) (CD8+ T cells [1]): expand specific CD8+ T cells | specific CD8+ T expansions (immunogenicity) (CD8+ T cells [1]): specific CD8+ T expansions

Molecule: RLLHLESFL
expansion of specific CD8+ T cells (tetramer staining) (CD8+ T cells [1]): expand specific CD8+ T cells | specific CD8+ T expansions (immunogenicity) (CD8+ T cells [1]): specific CD8+ T expansions

Molecule: ILTASITSI
specific CD8+ T expansions (immunogenicity) (CD8+ T cells [1]): specific CD8+ T expansions

Molecule: RLADHLSFC
expansion of specific CD8+ T cells (tetramer staining) (CD8+ T cells [1]): expand specific CD8+ T cells | specific CD8+ T expansions (immunogenicity) (CD8+ T cells [1]): specific CD8+ T expansions; also recorded: immunogenic

Molecule: LLTSWHLYL
specific CD8+ T expansions (immunogenicity) (CD8+ T cells [1]): specific CD8+ T expansions

Molecule: AILPKANTV
expansion of specific CD8+ T cells (tetramer staining) (CD8+ T cells [1]): expand specific CD8+ T cells | specific CD8+ T expansions (immunogenicity) (CD8+ T cells [1]): specific CD8+ T expansions

Molecule: AMDGKELSL
specific CD8+ T expansions (immunogenicity) (CD8+ T cells [1]): specific CD8+ T expansions

Molecule: FLGTRVTRV
specific CD8+ T expansions (immunogenicity) (CD8+ T cells [1]): specific CD8+ T expansions

Molecule: YLPYFLKSL
specific CD8+ T expansions (immunogenicity) (CD8+ T cells [1]): specific CD8+ T expansions

Molecule: ILSGYGPCV
specific CD8+ T expansions (immunogenicity) (CD8+ T cells [1]): specific CD8+ T expansions

Molecule: MLVTWELAL
specific CD8+ T expansions (immunogenicity) (CD8+ T cells [1]): specific CD8+ T expansions

percentage of fluorescence relative to positive control (HLA-A2 tetramer formation) [3]: > 50%
B1: chimeric transcript-derived peptide FLGTRVTRV (peptide)
peptide: FLGTRVTRV
notes: Synthetic peptide

percentage of fluorescence relative to positive control (HLA-A2 tetramer formation) [3]: > 50%
B2: chimeric transcript-derived peptide RLADHLSFC (peptide)
peptide: RLADHLSFC
notes: Synthetic peptide; also called peptide 64

percentage of fluorescence relative to positive control (HLA-A2 tetramer formation) [3]: > 50%
B3: chimeric transcript-derived peptide FLIVAEILI (peptide)
peptide: FLIVAEILI
notes: Synthetic peptide

percentage of fluorescence relative to positive control (HLA-A2 tetramer formation) [3]: > 50%
B4: chimeric transcript-derived peptide RLLHLESFL (peptide)
peptide: RLLHLESFL
notes: Synthetic peptide

percentage of fluorescence relative to positive control (HLA-A2 tetramer formation) [3]: > 50%
B5: chimeric transcript-derived peptide YLPYFLKSL (peptide)
peptide: YLPYFLKSL
notes: Synthetic peptide

percentage of fluorescence relative to positive control (HLA-A2 tetramer formation) [3]: > 50%
B6: chimeric transcript-derived peptide AILPKANTV (peptide)
peptide: AILPKANTV
notes: Synthetic peptide

percentage of fluorescence relative to positive control (HLA-A2 tetramer formation) [3]: > 50%
B7: chimeric transcript-derived peptide MLMKTVWQA (peptide)
peptide: MLMKTVWQA
notes: Synthetic peptide; also called peptide 80

percentage of fluorescence relative to positive control (HLA-A2 tetramer formation) [3]: > 50%
B8: chimeric transcript-derived peptide AMDGKELSL (peptide)
peptide: AMDGKELSL
notes: Synthetic peptide
